Reference: ChEMBL document CHEMBL1158145, “Xenofuranones A and B: phenylpyruvate dimers from Xenorhabdus szentirmaii” (J Nat Prod, 2006)
Converted amounts (≈) assume the structure as drawn.

Test system: L929
Assay: Cytotoxicity against mouse L929 cells
Type: cell-based

COC1=C(c2ccccc2)C(Cc2ccccc2)OC1=O (stereo unspecified) [XENOFURANONE A]
IC50: 18 µg/mL (≈ 64.2 µM)
